# Legend:
# Format in all cases: in vivo
# [1] = test system: high fat fed, hypertensive SHR rats; experiment: Quinelorane and fusaric acid, alone and combined, in high fat fed hypertensive SHR rats (Example 5); conditions: SHR rats on high fat diet
# Description: Male SHR rats were maintained on 14 hour daily photoperiods and fed a high fat diet (60% of energy from fat; 5.24 kcal/gram weight) for 3 weeks and then divided into different groups and treated with either quinelorane (Q; a dopamine D2/D3 mixed receptor agonist) (0.075 mg/kg), fusaric acid (FA; a dopamine beta hydroxylase inhibitor) (12.5 mg/kg), quinelorane (0.075 mg/kg) plus FA (Q/FA) (12.5 mg/kg), or vehicle at 13 hours after light onset for 17 days. The doses of Q and FA were set at less than half maximal to effect central dopamine receptor binding functions and dopamine beta hydroxylase activity, respectively. […] Blood pressure measurements were taken at 14 days of treatment and animals were sacrificed at 18 days of treatment for analyses of body fat and humoral factors and metabolites. […] Respecting blood glucose, although both Q and FA reduced glucose level relative to vehicle, only the Q/FA regimen normalized blood glucose in these animals relative to vehicle (FIG. 6).
# [2] = test system: obese, diabetic female ob/ob mice; experiment: Amphetamine with or without bromocriptine, 14 days in ob/ob mice (Example 3); conditions: amphetamine 3 mg/kg
# From the text: Amphetamine is a selective presynaptic dopamine release enhancer. It also acts as a presynaptic noradrenergic release enhancer but at higher dosages that will counter the effect of the dopamine reuptake inhibition activity to improve metabolism. However, addition of a dopamine D2 receptor agonist will act to reduce any amphetamine-induced increase in synaptic noradrenaline level and therefore should produce a more pronounced desired effect on metabolic disease than amphetamine or the D2 receptor agonist alone. A study was conducted to determine the effects of low dose amphetamine (3 mg/kg) with or without the dopamine D2 receptor agonist bromocriptine (5-<10 mg/kg dose) upon body weight gain, blood glucose, plasma free fatty acid and triglyceride levels in obese, diabetic mice (ob/ob strain). […] The ob/ob mouse is hyperphagic, obese, insulin resistant, diabetic and dyslipidemic due to the absence of functional leptin as a result of a mutation in this gene. Starvation or calorie restriction of these mice leads to increases in plasma free fatty acid levels that can function over the long term to worsen diabetes.
# On the fifteenth day of the study and approximately 24 hours after the final treatment animals were sacrificed and blood samples were obtained for the analyses of blood glucose, plasma free fatty acid and triglyceride levels.
# [3] = test system: obese, diabetic female ob/ob mice; experiment: Fusaric acid and SKF 38393, alone and combined, 14 days in ob/ob mice (Example 4); conditions: fusaric acid 15 mg/kg, SKF 38393 10 mg/kg
# Description: Fusaric acid is a dopamine beta hydroxylase inhibitor that reduces noradrenaline synthesis in noradrenergic neurons. It is not present in dopaminergic neurons and thus exerts no such effect there. SKF38393 is a post-synaptic dopamine D1 receptor agonist with no marked influence on noradrenergic neurons. A study was conducted to determine the interactive effects of fusaric acid plus SKF 38393 on body fat store levels, and blood glucose and plasma triglyceride levels in ob/ob mice. The ob/ob mouse is hyperphagic, obese, insulin resistant, diabetic and dyslipidemic due to the absence of functional leptin as a result of a mutation in this gene.
# Obese, diabetic female ob/ob mice (body weight of approximately 33 g) maintained on 14 hour daily photoperiods, housed one per cage and allowed to feed ad libitum were randomized to once daily treatment with either fusaric acid (15 mg/kg; n=6-8), SKF 38393 (10 mg/kg; n=6-8), both fusaric acid (15 mg/kg) and SKF 38393 (10 mg/kg) (n=6-8), or vehicle (control group; n=6-8) for a 14 day period. On the fifteenth day of the study and approximately 24 hours after the final treatment animals were sacrificed and blood samples were obtained for the analyses of blood glucose, plasma free fatty acid and triglyceride levels. Relative to controls, fusaric acid raised blood glucose from 380+/−30 mg/dl to 430+/−30 mg/dl and SKF 38393 reduced blood glucose to 290+/−55 mg/dl. However, fusaric acid plus SKF 38393 reduced blood glucose to 180+/−20 mg/dl. […] Neither fusaric acid nor SKF 38393 had any effect on retroperitoneal fat pad weight (735+/−43 mg and 735+/−50 mg, respectively versus control value of 727+/−25 mg) however, the combination of fusaric acid plus SKF 38393 reduced retroperitoneal fat pad weight to 680+/−25 mg.
# [4] = relative to vehicle, sacrifice at 18 days
smiles,measurement,setting,value
CCCN1CCC[C@@H]2Cc3nc(N)ncc3C[C@H]21 [Q],desensitization to the effects on weight loss,"[1]; Q 0.075 mg/kg, 17 days",exhibited desensitization
same,change from baseline body weight (weight loss),"[1]; Q 0.075 mg/kg, FA 12.5 mg/kg, 17 days, FIGS. 1 and 2",modest if any effects
same,blood glucose,"[1]; relative to vehicle, FIG. 6",reduced
same,plasma endothelin-1 (endothelin 1-21 fragment),[1]; [4],no significant effect
same,plasma nitric oxide,[1]; [4],no significant effect
CC(N)Cc1ccccc1 (stereo not drawn) [amphetamine],plasma free fatty acid levels,"[2]; 14 days, controls 900+/−100",510 ± 30 µM
same,final body weight,"[2]; bromocriptine 5-<10 mg/kg, 14 days, controls 44+/−1",no effect
same,plasma triglyceride levels,"[2]; bromocriptine 5-<10 mg/kg, 14 days, controls 175+/−21",70 ± 7 mg/dL
same,blood glucose,"[2]; bromocriptine 5-<10 mg/kg, once daily 14 days, controls 422+/−46",348 ± 22 mg/dL
"Cl.Oc1cc2c(cc1O)C(c1ccccc1)CNCC2 (stereo not drawn) [SKF 38393, 1-phenyl-7,8-dihydroxy-2,3,4,5-tetrahydro-1H-3-benzazepine hydrochloride]",retroperitoneal fat pad weight,"[3]; 14 days, control 727+/−25",735 ± 50 mg
same,plasma triglyceride level,"[3]; 14 days, controls 155+/−15",130 ± 7 mg/dL
same,blood glucose,"[3]; once daily 14 days, controls 380+/−30",290 ± 55 mg/dL

# Reference: patent US9655865B2, “Therapeutic treatment for metabolic syndrome, type 2 diabetes, obesity, or prediabetes” (VeroScience, LLC, priority 2002, dated 2017)
